In ChEMBL document CHEMBL2010789, “Identification of 3-acyl-2-phenylamino-1,4-dihydroquinolin-4-one derivatives as inhibitors of the phosphatase SerB653 in Porphyromonas gingivalis, implicated in periodontitis” (Bioorg Med Chem Lett, 2012):
≈ marks a conversion by molar mass, not a printed value.

Test system: not listed separately
Assay: Inhibition of Porphyromonas gingivalis recombinant SerB653 phosphatase expressed in Escherichia coli BL21 using phosphoserine as substrate after 1 hr by malachite green colorimetric assay
Settings: not given

SMILES	IC50
CC(C)CC(=O)c1c(Nc2cc(F)ccc2F)[nH]c2c(Cl)ccc(Cl)c2c1=O	19.3 µM
O=C(c1c(Nc2cccc(Cl)c2Cl)[nH]c2c(Cl)ccc([N+](=O)[O-])c2c1=O)C1CC1	12.6 µM
CCC(=O)c1c(Nc2ccc(Cl)cc2Cl)[nH]c2c(Cl)ccc([N+](=O)[O-])c2c1=O	19.6 µM
CC(C)C(=O)c1c(Nc2ccc(F)cc2F)[nH]c2c(Cl)ccc([N+](=O)[O-])c2c1=O	12.3 µM
CC(=O)c1c(Nc2ccc(Cl)cc2Cl)[nH]c2c(C(F)(F)F)cccc2c1=O	18.6 µM
O=C(c1c(Nc2cc(Cl)cc(Cl)c2)[nH]c2c(Cl)ccc([N+](=O)[O-])c2c1=O)C1CC1	17 µM
CC(C)C(=O)c1c(Nc2cc(Cl)cc(Cl)c2)[nH]c2c(Cl)ccc(Cl)c2c1=O	9.2 µM
O=C(c1c(Nc2ccc(Cl)cc2Cl)[nH]c2c(Cl)ccc([N+](=O)[O-])c2c1=O)C1CC1	17.6 µM
CC(C)C(=O)c1c(Nc2cc(F)cc(F)c2)[nH]c2c(Cl)ccc([N+](=O)[O-])c2c1=O	19.1 µM
CC(=O)c1c(Nc2ccc(Cl)cc2)[nH]c2c(C(F)(F)F)cc(Cl)cc2c1=O	7.5 µM
CC(=O)c1c(Nc2ccccc2Cl)[nH]c2c(C(F)(F)F)cc(Cl)cc2c1=O	16.8 µM
CC(C)CC(=O)c1c(Nc2cccc(Cl)c2Cl)[nH]c2c(Cl)ccc([N+](=O)[O-])c2c1=O	18.9 µM
CC(C)CC(=O)c1c(Nc2cc(F)cc(F)c2)[nH]c2c(Cl)ccc([N+](=O)[O-])c2c1=O	16.3 µM
CC(C)C(=O)c1c(Nc2cc(Cl)cc(Cl)c2)[nH]c2c(Cl)ccc([N+](=O)[O-])c2c1=O	17.9 µM
CC(C)CC(=O)c1c(Nc2cc(Cl)ccc2Cl)[nH]c2c(Cl)ccc([N+](=O)[O-])c2c1=O	18.8 µM
CC(C)CC(=O)c1c(Nc2ccc(Cl)cc2Cl)[nH]c2c(Cl)ccc([N+](=O)[O-])c2c1=O	19.6 µM

SMILES	IC50
CC(C)CC(=O)c1c(Nc2cc(Cl)cc(Cl)c2)[nH]c2c(Cl)ccc([N+](=O)[O-])c2c1=O	18.7 µM
CC(C)C(=O)c1c(Nc2ccc(Cl)cc2F)[nH]c2c(Cl)ccc([N+](=O)[O-])c2c1=O	16.5 µM
CC(=O)c1c(Nc2cc(F)cc(F)c2)[nH]c2c(Cl)c(Cl)ccc2c1=O	18.6 µM
O=C(c1c(Nc2ccc(Cl)c(Cl)c2)[nH]c2c(Cl)ccc(Cl)c2c1=O)C1CC1	11.5 µM
CC(C)CC(=O)c1c(Nc2ccc(Cl)cc2F)[nH]c2c(Cl)ccc([N+](=O)[O-])c2c1=O	19.3 µM
CCC(=O)c1c(Nc2cc(Cl)ccc2Cl)[nH]c2c(Cl)ccc([N+](=O)[O-])c2c1=O	4 µM
CC(=O)c1c(Nc2cc(C(F)(F)F)cc(C(F)(F)F)c2)[nH]c2c(F)ccc(F)c2c1=O	19.4 µM
CCC(=O)c1c(Nc2cc(F)cc(F)c2)[nH]c2c(Cl)ccc([N+](=O)[O-])c2c1=O	19.4 µM
CCC(=O)c1c(Nc2cc(Cl)cc(Cl)c2)[nH]c2c(Cl)ccc([N+](=O)[O-])c2c1=O	6.9 µM
CC(=O)c1c(Nc2cc(C(F)(F)F)cc(C(F)(F)F)c2)[nH]c2c(Cl)ccc(F)c2c1=O	19.3 µM
CCC(=O)c1c(Nc2cccc(Cl)c2Cl)[nH]c2c(Cl)ccc([N+](=O)[O-])c2c1=O	5.5 µM
CC(C)C(=O)c1c(Nc2cccc(Cl)c2Cl)[nH]c2c(Cl)ccc([N+](=O)[O-])c2c1=O	19.1 µM
CC(=O)c1c(Nc2cc(Cl)ccc2Cl)[nH]c2c(Cl)ccc([N+](=O)[O-])c2c1=O	19 µM
CCC(=O)c1c(Nc2ccc(Cl)c(Cl)c2)[nH]c2c(Cl)ccc([N+](=O)[O-])c2c1=O	11.6 µM
CC(=O)c1c(Nc2cccc(Cl)c2Cl)[nH]c2c(Cl)ccc([N+](=O)[O-])c2c1=O	19.6 µM

Test system: Porphyromonas gingivalis
Assay: Inhibition of Porphyromonas gingivalis recombinant SerB653 phosphatase expressed in Escherichia coli BL21 using phosphoserine as substrate at 50 uM after 1 hr by malachite green colorimetric assay
Settings: not given

SMILES	inhibition
CC(C)CC(=O)c1c(Nc2cc(F)ccc2F)[nH]c2c(Cl)ccc(Cl)c2c1=O	91%
O=C(c1c(Nc2cccc(Cl)c2Cl)[nH]c2c(Cl)ccc([N+](=O)[O-])c2c1=O)C1CC1	98.5%
CCC(=O)c1c(Nc2ccc(Cl)cc2Cl)[nH]c2c(Cl)ccc([N+](=O)[O-])c2c1=O	97.4%
CC(C)C(=O)c1c(Nc2ccc(F)cc2F)[nH]c2c(Cl)ccc([N+](=O)[O-])c2c1=O	80.1%
CC(=O)c1c(Nc2ccc(Cl)cc2Cl)[nH]c2c(C(F)(F)F)cccc2c1=O	96.3%
O=C(c1c(Nc2cc(Cl)cc(Cl)c2)[nH]c2c(Cl)ccc([N+](=O)[O-])c2c1=O)C1CC1	99.4%
CC(C)C(=O)c1c(Nc2cc(Cl)cc(Cl)c2)[nH]c2c(Cl)ccc(Cl)c2c1=O	94.9%
O=C(c1c(Nc2ccc(Cl)cc2Cl)[nH]c2c(Cl)ccc([N+](=O)[O-])c2c1=O)C1CC1	98.1%
CC(C)C(=O)c1c(Nc2cc(F)cc(F)c2)[nH]c2c(Cl)ccc([N+](=O)[O-])c2c1=O	94.7%
CC(=O)c1c(Nc2ccc(Cl)cc2)[nH]c2c(C(F)(F)F)cc(Cl)cc2c1=O	95.7%
CC(=O)c1c(Nc2ccccc2Cl)[nH]c2c(C(F)(F)F)cc(Cl)cc2c1=O	89.1%
CC(C)CC(=O)c1c(Nc2cccc(Cl)c2Cl)[nH]c2c(Cl)ccc([N+](=O)[O-])c2c1=O	98.6%
CC(C)CC(=O)c1c(Nc2cc(F)cc(F)c2)[nH]c2c(Cl)ccc([N+](=O)[O-])c2c1=O	97.5%
CC(C)C(=O)c1c(Nc2cc(Cl)cc(Cl)c2)[nH]c2c(Cl)ccc([N+](=O)[O-])c2c1=O	99.1%
CC(C)CC(=O)c1c(Nc2cc(Cl)ccc2Cl)[nH]c2c(Cl)ccc([N+](=O)[O-])c2c1=O	98.8%
CC(C)CC(=O)c1c(Nc2ccc(Cl)cc2Cl)[nH]c2c(Cl)ccc([N+](=O)[O-])c2c1=O	97.8%

SMILES	inhibition
CC(C)CC(=O)c1c(Nc2cc(Cl)cc(Cl)c2)[nH]c2c(Cl)ccc([N+](=O)[O-])c2c1=O	99.1%
CC(C)C(=O)c1c(Nc2ccc(Cl)cc2F)[nH]c2c(Cl)ccc([N+](=O)[O-])c2c1=O	94.3%
CC(=O)c1c(Nc2cc(F)cc(F)c2)[nH]c2c(Cl)c(Cl)ccc2c1=O	93.5%
O=C(c1c(Nc2ccc(Cl)c(Cl)c2)[nH]c2c(Cl)ccc(Cl)c2c1=O)C1CC1	89.7%
CC(C)CC(=O)c1c(Nc2ccc(Cl)cc2F)[nH]c2c(Cl)ccc([N+](=O)[O-])c2c1=O	97.3%
CCC(=O)c1c(Nc2cc(Cl)ccc2Cl)[nH]c2c(Cl)ccc([N+](=O)[O-])c2c1=O	97.8%
CC(=O)c1c(Nc2cc(C(F)(F)F)cc(C(F)(F)F)c2)[nH]c2c(F)ccc(F)c2c1=O	95%
CCC(=O)c1c(Nc2cc(F)cc(F)c2)[nH]c2c(Cl)ccc([N+](=O)[O-])c2c1=O	92.7%
CCC(=O)c1c(Nc2cc(Cl)cc(Cl)c2)[nH]c2c(Cl)ccc([N+](=O)[O-])c2c1=O	97.4%
CC(=O)c1c(Nc2cc(C(F)(F)F)cc(C(F)(F)F)c2)[nH]c2c(Cl)ccc(F)c2c1=O	98.5%
CCC(=O)c1c(Nc2cccc(Cl)c2Cl)[nH]c2c(Cl)ccc([N+](=O)[O-])c2c1=O	97.1%
CC(C)C(=O)c1c(Nc2cccc(Cl)c2Cl)[nH]c2c(Cl)ccc([N+](=O)[O-])c2c1=O	96.3%
CC(=O)c1c(Nc2cc(Cl)ccc2Cl)[nH]c2c(Cl)ccc([N+](=O)[O-])c2c1=O	98.3%
CCC(=O)c1c(Nc2ccc(Cl)c(Cl)c2)[nH]c2c(Cl)ccc([N+](=O)[O-])c2c1=O	98.5%
CC(=O)c1c(Nc2cccc(Cl)c2Cl)[nH]c2c(Cl)ccc([N+](=O)[O-])c2c1=O	96.7%

Test system: Porphyromonas gingivalis
Assay: Antibacterial activity against Porphyromonas gingivalis ATCC 33277 after 2 hrs by broth microdilution method
Assay type: functional
Settings: ATCC 33277, 2 h

SMILES	MIC
CCC(=O)c1c(Nc2cc(Cl)ccc2Cl)[nH]c2c(Cl)ccc([N+](=O)[O-])c2c1=O	0.05 µg/mL (≈ 0.113 µM)
CCC(=O)c1c(Nc2cccc(Cl)c2Cl)[nH]c2c(Cl)ccc([N+](=O)[O-])c2c1=O	0.05 µg/mL (≈ 0.113 µM)

Test system: not listed separately
Assay: Inhibition of Porphyromonas gingivalis recombinant SerB653 phosphatase expressed in Escherichia coli BL21 using phosphoserine as substrate measured every 10 secs by malachite green colorimetric assay
Settings: not given

SMILES	Ki
O=C(c1c(Nc2cccc(Cl)c2Cl)[nH]c2c(Cl)ccc([N+](=O)[O-])c2c1=O)C1CC1	4.5 µM
CC(C)C(=O)c1c(Nc2cc(Cl)cc(Cl)c2)[nH]c2c(Cl)ccc(Cl)c2c1=O	3.3 µM
CC(=O)c1c(Nc2ccc(Cl)cc2)[nH]c2c(C(F)(F)F)cc(Cl)cc2c1=O	2.7 µM
O=C(c1c(Nc2ccc(Cl)c(Cl)c2)[nH]c2c(Cl)ccc(Cl)c2c1=O)C1CC1	4.1 µM
CCC(=O)c1c(Nc2cc(Cl)ccc2Cl)[nH]c2c(Cl)ccc([N+](=O)[O-])c2c1=O	1.4 µM
CCC(=O)c1c(Nc2cc(Cl)cc(Cl)c2)[nH]c2c(Cl)ccc([N+](=O)[O-])c2c1=O	2.5 µM
CCC(=O)c1c(Nc2cccc(Cl)c2Cl)[nH]c2c(Cl)ccc([N+](=O)[O-])c2c1=O	2 µM
CCC(=O)c1c(Nc2ccc(Cl)c(Cl)c2)[nH]c2c(Cl)ccc([N+](=O)[O-])c2c1=O	4.1 µM
